In patent US20260365670A1, “EGFR INHIBITORS AND USES THEREOF” (DIZAL (JIANGSU) PHARMACEUTICAL CO., LTD., priority 2022, published 2026):
Read-outs that look alike come from different tables or passages of the source.

Key:
EGFR (C797S L858R) = target: T1, EGFR (C797S L858R) (Homo sapiens, UniProt P00533, C797S/L858R); experiment: Inhibition of EGFR (C797S L858R) biochemical enzymatic activity (HTRF); conditions: 1 mM ATP
T1 construct: purchased signalchem
Procedure: (§1) Biological Example 1: Inhibition of EGFR WT and Mutant Biochemical Enzymatic Activity
(§2) The inhibition potency of compounds against these enzymes was assessed using Homogenous Time Resolved Fluorescence approach (HTRF, CisBio. Cat No. 62TKOPEJ).
(§3) Inhibitory effects of the compounds were determined by measuring the enzymatic activity of EGFR enzyme phosphorylates 1 μM TK Substrate-biotin in the presence of 1 mM adenosine-5′-triphosphate (ATP) and varying concentrations of the test compound. The enzyme reaction buffer contains 5 mM MgCl2, 1 mM MnC12, 0.01% CHAPS, 1 mM dithiothreitol (DTT), 0.5% dimethylsulfoxide (DMSO), and 1× supplemented enzymatic buffer. The WT and mutant EGFR enzymes (SignalChem) were added to plates containing inhibitors, followed by activation of the kinase reaction by addition of ATP and peptide substrates. After incubation for 1 h at room temperature, the reaction was stopped by the addition of the detection reagent mix containing EDTA. The fluorescence was measured at 615 nm and 665 nm, respectively with excitation wavelength at 320 nm. The calculated signal ratio of 665 nm/615 nm is proportional to the kinase activity. The concentration of compound producing 50% inhibition of the respective kinase (IC50) was calculated using four-parameter logistic fit with XL-FIT.

EGFR L858R/T790M = target: T2, EGFR L858R/T790M (Homo sapiens, UniProt P00533, L858R/T790M); experiment: Inhibition of EGFR L858R/T790M biochemical enzymatic activity (HTRF); conditions: 1 mM ATP
T2 construct: purchased Carna Bio
Procedure: as §1, §2, §3

EGFR Exon19Del/T790M = target: T3, EGFR Exon19Del/T790M (Homo sapiens, UniProt P00533, DEL746-750/T790M); experiment: Inhibition of EGFR Exon19Del/T790M biochemical enzymatic activity (HTRF); conditions: 1 mM ATP
T3 construct: purchased Carna Bio
Procedure: as §1, §2, §3

EGFR Exon19Del = target: T4, EGFR Exon19Del (Homo sapiens, UniProt P00533, DEL746-750); experiment: Inhibition of EGFR Exon19Del biochemical enzymatic activity (HTRF); conditions: read-out: IC50 @Del19
T4 construct: purchased Carna Bio
Procedure: as §1, §2, §3

[1] = test system: Ba/F3 cells expressing EGFR mutations; experiment: Cell proliferation assay, Ba/F3 cells expressing EGFR mutations (CellTiter-Glo, 72 hours); type: cell-based
Procedure: (§4) Biological Example 2: Cell Proliferation Assays
(§5) Ba/F3 cells expressing EGFR mutations were seeded in 384-well plates at 5000 cells/well in RPMI1640 medium containing […]. PC-9 at 500 cells/well was seeded into 384-well plates in RPMI1640 medium with 10% FBS. After overnight incubation, the assay plates were dosed with compounds at a series of concentrations. Alongside dosing the assay plates, the day 0 plate was processed using CellTiter-Glo® Luminescent Cell Viability Assay (Promega) to measure the number of viable cells (G0). The assay plates were further incubated for 72 hours and the number of viable cells (G3) was measured. The percentage of proliferation was calculated as: […]=100×(G3 value of sample well−G0 value)/(G3 value of DMSO control−G0 value). The concentration of compound producing 50% proliferation inhibition (GI50) was further calculated in best-fit curves using XLFit software. N/A=not available.

EGFR (d746-750 C797S) = target: T5, EGFR (d746-750 C797S) (Homo sapiens, UniProt P00533, C797S/DEL746-750); experiment: Inhibition of EGFR (d746-750 C797S) biochemical enzymatic activity (HTRF); conditions: 1 mM ATP
T5 construct: purchased signalchem
Procedure: as §1, §2, §3

EGFR wild type = target: T6, EGFR wild type (Homo sapiens, UniProt P00533); experiment: Inhibition of EGFR wild type biochemical enzymatic activity (HTRF); conditions: 1 mM ATP
T6 construct: purchased Carna Bio
Procedure: as §1, §2, §3

PC-9 = experiment: Cell proliferation assay, PC-9 cells (CellTiter-Glo, 72 hours); type: cell-based; conditions: PC9 cells
Procedure: as §4, §5

EGFR[T790M/C797S/L858R] = target: T7, EGFR[T790M/C797S/L858R] (Homo sapiens, UniProt P00533, C797S/L858R/T790M); experiment: Inhibition of EGFR[T790M/C797S/L858R] biochemical enzymatic activity (HTRF); conditions: 1 mM ATP
T7 construct: purchased Carna Bio
Procedure: as §1, §2, §3

EGFR L858R = target: T8, EGFR L858R (Homo sapiens, UniProt P00533, L858R); experiment: Inhibition of EGFR L858R biochemical enzymatic activity (HTRF); conditions: 1 mM ATP
T8 construct: purchased Carna Bio
Procedure: as §1, §2, §3

[2] = target: T9, EGFR[T790M/C797S/d746-750] (Homo sapiens, UniProt P00533, C797S/DEL746-750/T790M); experiment: Inhibition of EGFR[T790M/C797S/d746-750] biochemical enzymatic activity (HTRF)
T9 construct: purchased Carna Bio
Procedure: as §1, §2, §3

[3] = EGFR (C797S L858R), 1 h at room temperature, read-out: IC50 @L858-C797S
[4] = EGFR L858R/T790M, 1 h at room temperature, read-out: IC50 @L858R-T790M
[5] = EGFR Exon19Del/T790M, 1 h at room temperature, read-out: IC50 @Del19-T790M
[6] = EGFR Exon19Del, 1 mM ATP, 1 h at room temperature
[7] = BaF3 cells, EGFR DEL19 - C797S, read-out: GI50 DEL19 - C797S/BaF3
[8] = BaF3 cells, EGFR DEL19 - T790-C797S, read-out: GI50 DEL19 - T790-C797S/BaF3
[9] = BaF3 cells, EGFR L858R - C797S, read-out: GI50 L858R - C797S/BaF3
[10] = BaF3 cells, EGFR L858R - T790-C797S, read-out: GI50 L858R - T790-C797S/BaF3
[11] = BaF3 cells, EGFR L858R - T790M, read-out: GI50 L858R - T790M/BaF3
[12] = BaF3 cells, EGFR L858R, read-out: GI50 L858R/BaF3
[13] = EGFR DEL19 - T790M, read-out: GI50 DEL19 - T790M
[14] = EGFR (d746-750 C797S), 1 h at room temperature, read-out: IC50 @Del19-C797S
[15] = EGFR wild type, 1 h at room temperature, read-out: IC50 @WT
[16] = EGFR[T790M/C797S/L858R], 1 h at room temperature, read-out: IC50 @T790M- C797S - L858R
[17] = 1 h at room temperature, read-out: IC50 @L858R
[18] = EGFR[T790M/C797S/d746-750], 1 mM ATP, 1 h at room temperature, read-out: IC50 @T790M - C797S - Del19

T6 sequence (P00533 25-1210): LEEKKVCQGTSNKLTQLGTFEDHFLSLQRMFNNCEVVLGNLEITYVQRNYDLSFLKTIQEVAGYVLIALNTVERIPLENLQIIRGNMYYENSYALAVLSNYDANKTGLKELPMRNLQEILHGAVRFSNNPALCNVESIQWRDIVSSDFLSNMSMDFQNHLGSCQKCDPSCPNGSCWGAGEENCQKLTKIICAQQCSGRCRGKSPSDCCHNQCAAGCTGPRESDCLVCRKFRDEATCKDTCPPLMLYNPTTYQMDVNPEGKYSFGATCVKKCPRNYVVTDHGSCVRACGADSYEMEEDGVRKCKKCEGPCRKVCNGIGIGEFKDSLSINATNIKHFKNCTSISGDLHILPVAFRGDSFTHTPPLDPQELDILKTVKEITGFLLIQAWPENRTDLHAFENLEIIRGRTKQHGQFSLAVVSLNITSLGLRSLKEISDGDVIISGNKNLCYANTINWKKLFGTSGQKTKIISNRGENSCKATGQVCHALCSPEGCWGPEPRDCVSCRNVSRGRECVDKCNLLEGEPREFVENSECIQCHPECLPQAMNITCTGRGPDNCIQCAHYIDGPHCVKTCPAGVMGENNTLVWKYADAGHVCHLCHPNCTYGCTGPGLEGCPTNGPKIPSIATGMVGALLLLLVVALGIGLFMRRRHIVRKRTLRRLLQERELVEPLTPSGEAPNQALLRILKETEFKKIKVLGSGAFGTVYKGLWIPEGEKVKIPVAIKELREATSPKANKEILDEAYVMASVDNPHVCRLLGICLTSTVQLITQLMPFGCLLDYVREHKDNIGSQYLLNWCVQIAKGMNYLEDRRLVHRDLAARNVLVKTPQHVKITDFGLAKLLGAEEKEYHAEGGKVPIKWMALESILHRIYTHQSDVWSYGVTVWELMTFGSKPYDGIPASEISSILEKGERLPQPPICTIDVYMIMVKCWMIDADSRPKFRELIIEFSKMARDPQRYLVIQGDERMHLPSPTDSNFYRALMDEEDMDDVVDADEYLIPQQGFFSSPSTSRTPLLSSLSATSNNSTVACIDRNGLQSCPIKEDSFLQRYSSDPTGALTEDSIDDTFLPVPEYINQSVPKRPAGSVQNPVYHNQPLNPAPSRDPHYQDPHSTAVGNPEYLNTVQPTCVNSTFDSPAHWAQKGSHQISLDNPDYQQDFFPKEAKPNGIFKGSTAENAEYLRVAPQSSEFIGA
T7 sequence (P00533 25-1210 T790M/C797S/L858R): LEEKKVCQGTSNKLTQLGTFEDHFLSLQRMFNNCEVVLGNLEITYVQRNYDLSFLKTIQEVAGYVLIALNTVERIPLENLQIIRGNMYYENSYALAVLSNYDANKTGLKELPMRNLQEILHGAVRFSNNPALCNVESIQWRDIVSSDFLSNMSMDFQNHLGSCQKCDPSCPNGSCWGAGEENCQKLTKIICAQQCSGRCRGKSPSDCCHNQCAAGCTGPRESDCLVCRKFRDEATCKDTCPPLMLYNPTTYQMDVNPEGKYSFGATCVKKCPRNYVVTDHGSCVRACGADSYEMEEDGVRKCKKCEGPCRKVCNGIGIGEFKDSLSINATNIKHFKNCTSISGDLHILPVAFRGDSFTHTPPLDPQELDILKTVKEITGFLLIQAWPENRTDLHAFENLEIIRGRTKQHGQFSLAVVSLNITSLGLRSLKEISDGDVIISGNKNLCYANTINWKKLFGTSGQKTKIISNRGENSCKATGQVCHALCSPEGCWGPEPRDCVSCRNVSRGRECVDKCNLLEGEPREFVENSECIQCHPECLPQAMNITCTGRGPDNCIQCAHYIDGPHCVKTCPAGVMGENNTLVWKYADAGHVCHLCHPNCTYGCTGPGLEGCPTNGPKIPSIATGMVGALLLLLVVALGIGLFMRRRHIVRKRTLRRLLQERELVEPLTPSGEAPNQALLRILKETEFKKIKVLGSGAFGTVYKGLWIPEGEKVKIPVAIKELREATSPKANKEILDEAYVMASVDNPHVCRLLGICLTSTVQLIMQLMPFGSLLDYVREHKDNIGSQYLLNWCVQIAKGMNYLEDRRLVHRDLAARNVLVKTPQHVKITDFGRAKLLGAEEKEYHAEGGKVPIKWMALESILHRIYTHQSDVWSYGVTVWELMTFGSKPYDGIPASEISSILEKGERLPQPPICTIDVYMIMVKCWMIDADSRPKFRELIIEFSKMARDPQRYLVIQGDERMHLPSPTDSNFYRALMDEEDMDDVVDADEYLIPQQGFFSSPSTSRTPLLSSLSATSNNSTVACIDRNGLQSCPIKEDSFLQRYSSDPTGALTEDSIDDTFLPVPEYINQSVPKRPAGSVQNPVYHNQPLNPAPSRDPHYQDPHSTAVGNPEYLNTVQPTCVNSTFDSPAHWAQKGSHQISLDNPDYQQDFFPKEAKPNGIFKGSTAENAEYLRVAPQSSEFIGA
T2 sequence (P00533 25-1210 T790M/L858R): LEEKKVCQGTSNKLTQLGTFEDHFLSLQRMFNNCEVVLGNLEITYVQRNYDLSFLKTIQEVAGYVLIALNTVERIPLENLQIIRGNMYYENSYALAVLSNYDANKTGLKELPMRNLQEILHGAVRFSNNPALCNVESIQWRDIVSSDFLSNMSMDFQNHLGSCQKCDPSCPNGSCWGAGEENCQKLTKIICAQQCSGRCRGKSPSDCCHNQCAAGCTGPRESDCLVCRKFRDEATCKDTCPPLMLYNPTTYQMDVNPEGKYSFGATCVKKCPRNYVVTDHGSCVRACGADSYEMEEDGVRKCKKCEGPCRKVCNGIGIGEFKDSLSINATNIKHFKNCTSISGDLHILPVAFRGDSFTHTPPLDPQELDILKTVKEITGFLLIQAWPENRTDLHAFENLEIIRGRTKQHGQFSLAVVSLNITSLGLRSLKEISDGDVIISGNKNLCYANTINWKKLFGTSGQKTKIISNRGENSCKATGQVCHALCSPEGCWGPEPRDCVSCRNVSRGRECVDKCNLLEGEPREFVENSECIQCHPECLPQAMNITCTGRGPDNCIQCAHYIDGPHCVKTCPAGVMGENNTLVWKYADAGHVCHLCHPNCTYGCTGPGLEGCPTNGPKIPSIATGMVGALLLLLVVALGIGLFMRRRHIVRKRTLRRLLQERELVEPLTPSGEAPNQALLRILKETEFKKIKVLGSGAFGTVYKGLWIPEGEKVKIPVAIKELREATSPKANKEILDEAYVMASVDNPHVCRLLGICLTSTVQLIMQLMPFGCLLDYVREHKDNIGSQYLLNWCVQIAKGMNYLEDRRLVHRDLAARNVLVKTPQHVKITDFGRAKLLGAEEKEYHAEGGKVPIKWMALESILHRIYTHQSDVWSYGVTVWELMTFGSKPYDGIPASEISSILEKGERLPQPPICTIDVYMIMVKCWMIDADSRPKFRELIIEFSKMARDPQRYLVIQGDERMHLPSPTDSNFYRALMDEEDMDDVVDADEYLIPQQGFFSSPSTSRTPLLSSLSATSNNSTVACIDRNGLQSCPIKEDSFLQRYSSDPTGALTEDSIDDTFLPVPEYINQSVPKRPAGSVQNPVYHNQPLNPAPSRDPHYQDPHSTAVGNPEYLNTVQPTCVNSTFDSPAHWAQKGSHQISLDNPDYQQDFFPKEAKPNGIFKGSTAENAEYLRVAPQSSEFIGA
T9 sequence (P00533 with tags, fused parts or gaps DEL746-750/T790M/C797S limits assumed): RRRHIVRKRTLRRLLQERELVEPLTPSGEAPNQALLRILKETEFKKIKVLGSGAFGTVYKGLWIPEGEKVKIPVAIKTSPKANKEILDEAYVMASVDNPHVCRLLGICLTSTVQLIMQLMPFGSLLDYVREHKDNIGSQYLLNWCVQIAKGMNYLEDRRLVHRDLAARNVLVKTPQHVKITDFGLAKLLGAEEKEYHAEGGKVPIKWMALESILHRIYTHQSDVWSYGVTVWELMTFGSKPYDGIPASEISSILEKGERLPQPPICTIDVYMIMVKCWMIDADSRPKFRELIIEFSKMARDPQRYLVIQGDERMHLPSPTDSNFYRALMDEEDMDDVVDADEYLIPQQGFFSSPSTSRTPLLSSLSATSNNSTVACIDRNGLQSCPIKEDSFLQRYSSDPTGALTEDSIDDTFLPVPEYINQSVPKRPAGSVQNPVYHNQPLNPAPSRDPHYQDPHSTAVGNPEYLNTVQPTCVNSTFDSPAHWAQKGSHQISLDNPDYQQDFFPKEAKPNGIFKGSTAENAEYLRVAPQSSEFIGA
T3 sequence (P00533 with tags, fused parts or gaps DEL746-750/T790M limits assumed): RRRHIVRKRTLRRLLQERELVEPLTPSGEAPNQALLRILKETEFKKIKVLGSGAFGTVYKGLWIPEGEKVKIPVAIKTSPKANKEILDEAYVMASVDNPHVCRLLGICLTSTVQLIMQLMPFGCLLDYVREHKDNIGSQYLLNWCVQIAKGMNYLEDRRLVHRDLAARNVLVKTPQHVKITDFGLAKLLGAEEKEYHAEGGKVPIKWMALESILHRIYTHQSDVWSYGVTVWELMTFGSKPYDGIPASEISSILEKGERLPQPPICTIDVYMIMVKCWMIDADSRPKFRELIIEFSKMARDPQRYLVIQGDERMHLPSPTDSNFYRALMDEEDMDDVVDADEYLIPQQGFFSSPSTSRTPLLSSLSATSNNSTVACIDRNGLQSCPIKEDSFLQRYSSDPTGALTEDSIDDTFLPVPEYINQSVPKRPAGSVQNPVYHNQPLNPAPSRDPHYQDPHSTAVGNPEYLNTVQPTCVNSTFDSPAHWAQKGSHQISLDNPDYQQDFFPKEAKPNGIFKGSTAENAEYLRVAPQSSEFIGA

| SMILES | IC50 (EGFR (C797S L858R); [3]) [nM] | IC50 (EGFR L858R/T790M; [4]) [nM] | IC50 (EGFR Exon19Del/T790M; [5]) [nM] | IC50 (EGFR Exon19Del; [6]) [nM] | GI50 [1, 7] [nM] | GI50 [1, 8] [nM] | GI50 [1, 9] [nM] | GI50 [1, 10] [nM] | GI50 [1, 11] [nM] | GI50 [1, 12] [nM] | GI50 [1, 13] [nM] | IC50 (EGFR (d746-750 C797S); [14]) [nM] | IC50 (EGFR wild type; [15]) [nM] | GI50 (PC-9; read-out: GI50 PC9) [nM] | IC50 (EGFR[T790M/C797S/L858R]; [16]) [nM] | IC50 (EGFR L858R; [17]) [nM] | IC50 [2, 18] [nM] | also measured |
| --- | --- | --- | --- | --- | --- | --- | --- | --- | --- | --- | --- | --- | --- | --- | --- | --- | --- | --- |
| Cc1cc2cc(n1)-c1cnn(C)c1OCCN1CC3CCC(C3)(C1)n1c(nc3ccc(N4CCC5(CN(C)C5)C4)cc31)NC2=O (single isomer, unassigned) [Example B50A] | > 5000 | > 5000 | 2290 | > 5000 | 302 | 437 | 741 | 52 | 320 | 1280 | 377 | > 5000 | > 5000 | 1550 | > 5000 | > 5000 | 748 | – |
| Cc1cc2cc(n1)-c1cnn(C)c1OCCN1CCOCC(C1)n1c(nc3ccccc31)NC2=O (single isomer, unassigned) [Example B7A, 15,21-dimethyl-23,29-dioxa-2,9,11,16,20,21,26-heptaazahexacyclo[24.4.1.1^{13,17}.0^{2,10}.0^{3,8}.0^{18,22}]dotriaconta-3,5,7,9,13(32),14,16,18(22),19-nonaen-12-one] | > 5000 | 2630 | 104 | 1210 | – | – | – | – | – | – | – | 611 | > 5000 | – | 1650 | > 5000 | 62 | GI50 ([1]; Mus musculus, BaF3, 72 h, BaF3 cells, EGFR DEL19 - C797S, read-out: GI50 DEL19 - C797S/BaF3): 228 nM; GI50 ([1]; Mus musculus, BaF3, 72 h, BaF3 cells, EGFR DEL19 - T790-C797S, read-out: GI50 DEL19 - T790-C797S/BaF3): 186 nM; GI50 ([1]; Mus musculus, BaF3, 72 h, BaF3 cells, EGFR L858R - C797S, read-out: GI50 L858R - C797S/BaF3): 189 nM; GI50 ([1]; Mus musculus, BaF3, 72 h, BaF3 cells, EGFR L858R - T790-C797S, read-out: GI50 L858R - T790-C797S/BaF3): 295 nM; GI50 ([1]; Mus musculus, BaF3, 72 h, BaF3 cells, EGFR L858R - T790M, read-out: GI50 L858R - T790M/BaF3): 383 nM; GI50 ([1]; Mus musculus, BaF3, 72 h, BaF3 cells, EGFR L858R, read-out: GI50 L858R/BaF3): 934 nM; GI50 ([1]; Mus musculus, BaF3, 72 h, EGFR DEL19 - T790M, read-out: GI50 DEL19 - T790M): 265 nM; GI50 (PC-9; Homo sapiens, PC-9, 72 h, read-out: GI50 PC9): 427 nM |
| Cc1cc2cc(n1)-c1cnn(C)c1OCCN1CC3CCC(C3)(C1)n1c(nc3ccc(N4CCN(C(C)C)CC4)cc31)NC2=O (single isomer, unassigned) [Example B57A] | > 5000 | > 5000 | 1770 | > 5000 | 208 | 428 | 829 | 147 | 324 | 2000 | 612 | > 5000 | > 5000 | 941 | > 5000 | > 5000 | 792 | – |
| CN(C)CCN(C)c1ccc2nc3n(c2c1)C12CCC(CN(CCOc4c(cnn4C)-c4cc(cn(C)c4=O)C(=O)N3)C1)C2 (single isomer, unassigned) [Example A85A] | – | – | – | – | – | – | – | – | – | – | – | – | – | – | – | – | – | IC50 (EGFR (C797S L858R); EGFR L858-C797S, 1 h, room temperature, read-out: IC50 (nM) @L858-C797S): 1280 nM; IC50 (EGFR L858R/T790M; EGFR L858R-T790M, 1 h, room temperature, read-out: IC50 (nM) @L858R-T790M): > 5000 nM; IC50 (EGFR Exon19Del/T790M; EGFR Del19-T790M, 1 h, room temperature, read-out: IC50 (nM) @Del19-T790M): > 5000 nM; IC50 (EGFR Exon19Del; EGFR Del19, 1 mM ATP, 1 h, room temperature): 138 nM; GI50 ([1]; BaF3 cells, EGFR DEL19-C797S, CellTiter-Glo, read-out: DEL19-C797S/BaF3 GI50): 95 nM; GI50 ([1]; BaF3 cells, EGFR DEL19-T790-C797S, CellTiter-Glo, read-out: DEL19-T790-C797S/BaF3 GI50): 119 nM; GI50 ([1]; BaF3 cells, EGFR L858R, CellTiter-Glo, read-out: L858R/BaF3 GI50): 188 nM; GI50 ([1]; BaF3 cells, EGFR L858R-C797S, CellTiter-Glo, read-out: L858R-C797S/BaF3 GI50): 167 nM; GI50 ([1]; BaF3 cells, EGFR L858R-T790-C797S, CellTiter-Glo, read-out: L858R-T790-C797S/BaF3 GI50): 303 nM; GI50 ([1]; BaF3 cells, EGFR L858R-T790M, CellTiter-Glo, read-out: L858R-T790M/BaF3 GI50): 364 nM; GI50 ([1]; EGFR DEL19-T790M, CellTiter-Glo, read-out: DEL19-T790M GI50): 159 nM; IC50 (EGFR (d746-750 C797S); EGFR Del19-C797S, 1 h, room temperature, read-out: IC50 (nM) @Del19-C797S): 308 nM; IC50 (EGFR wild type; EGFR WT, 1 h, room temperature, read-out: IC50 (nM) @WT): > 5000 nM; GI50 (PC-9; CellTiter-Glo, read-out: PC9 GI50): 387 nM; IC50 (EGFR[T790M/C797S/L858R]; EGFR T790M-C797S-L858R, 1 h, room temperature, read-out: IC50 (nM) @T790M- C797S - L858R): > 5000 nM; IC50 (EGFR L858R; 1 h, room temperature, read-out: IC50 (nM) @L858R): 1590 nM; IC50 ([2]; EGFR T790M-C797S-Del19, 1 mM ATP, 1 h, room temperature, read-out: IC50 (nM) @T790M - C797S - Del19): 3660 nM |
